Here are results for 28 compounds from patent US20090048269A1 (AstraZeneca AB, priority 2007, published 2009).

For experiment [1], the target named is T1, human ALK5 (Homo sapiens, UniProt P36897).
T1 sequence (P36897 162-503): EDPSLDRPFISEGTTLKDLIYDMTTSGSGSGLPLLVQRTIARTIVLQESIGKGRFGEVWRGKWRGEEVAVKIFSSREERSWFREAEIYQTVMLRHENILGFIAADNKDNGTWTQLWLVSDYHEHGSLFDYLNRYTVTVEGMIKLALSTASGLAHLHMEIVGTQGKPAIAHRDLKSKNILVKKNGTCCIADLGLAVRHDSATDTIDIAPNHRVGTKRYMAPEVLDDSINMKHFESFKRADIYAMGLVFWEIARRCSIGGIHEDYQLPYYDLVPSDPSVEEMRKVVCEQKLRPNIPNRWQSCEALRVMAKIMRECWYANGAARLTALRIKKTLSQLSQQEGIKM
The experiment can be described thus: ALK5 Enzyme Assay 1. It counts as biochemical. Also on record: 6His tagged ALK5 protein (amino acids 162-503) expressed in insect cells; 6His; made in house; host or cells: insect cells. The note with it: read-out: EAA: activity (μM) using Enzyme Assay 1. The method, then: This assay measures the ability of a compound to bind to and inhibit the activity of ALK5 protein in vitro. […] Assay measurements were performed in assay buffer comprising 60 mM HEPES pH 7.4, 3 mM MgCl2, 3 mM MnCl2, 3 μM Na orthovanadate, 1.2 mM DTT and 0.05% PEG2000. […] Reactions were performed in the presence of 200 μg/mL casein (Sigma-Aldrich C4765-10ML), 200 ng/mL ALK5, 0.5 μM ATP (Sigma-Aldrich A7699), 1 μCi/mL γ-33P ATP. Following addition of casein, ATP and compound, reactions were initiated by adding ALK5 enzyme and reactions run for 90 minutes. After incubation reactions were terminated by addition of 20 μL per well of 50% orthophosphoric acid. 20 minutes after addition of 70% v/v TCA, precipitated protein was transferred to GF/C 96 well plates using a Tomtec harvester with 1.5% orthophosphoric acid. […] All reactions were performed under linear kinetics.

Experiment [2] deals with T1, human ALK5. The experiment can be described thus: ALK5 Enzyme Assay 2 (fluorescence polarisation probe displacement). The following applies: read-out: EAA2: activity (μM) using Enzyme Assay 2. Also on record: 6His tagged human ALK5 (residues162-503) was grown and purified from insect cells; 6His; made in house; host or cells: insect cells. It counts as binding. In outline:
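Recombinant ALK5 (3 μg/mL) incubated with test compound in 50 mM HEPES pH7.4, 10 mM MgCl2, 1 mM DTT, 0.01% CHAPS. Displacement of a fluorescent quinazoline-based ALK5 probe (50 nM final) in presence of 1 μM ATP read by fluorescence polarisation.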

Several values for one entry are separate records, joined by “and”; a condition that tells them apart may be missing. Equal entries are not always repeated.

As to `COc1cc(Nc2cc(Oc3cccnc3-c3ccccc3C#N)ccn2)cc(OC)c1OC` [Example 50, 2-(3-{2-[(3,4,5-Trimethoxyphenyl)amino]pyridin-4-yl}-oxypyridin-2-yl)benzonitrile], the IC50 worked out at 0.126 µM in experiment [1] and 0.0308 µM in experiment [2]. On to `Cc1cc(Oc2ccnc(Nc3ccc(C(=O)N(C)C)cc3)c2)c(-c2ccccn2)nc1C` [Example 27, 4-{[4-(5,6-Dimethyl-2-pyridin-2-yl-pyridin-3-yl)oxypyridin-2-yl]-amino}-N,N-dimethyl-benzamide], for which the IC50 was 0.00706 µM in experiment [1] and 0.0124 µM in experiment [2]. As to `COc1cc(Nc2cc(Oc3cc(C)c(C)nc3-c3nc(C)c(C)s3)ccn2)cc(OC)c1OC` [Example 4, {4-[2-(4,5-Dimethyl-thiazol-2-yl)-5,6-dimethyl-pyridin-3-yloxy]-pyridin-2-yl}-(3,4,5-trimethoxy-phenyl)-amine], the IC50 amounted to 0.00951 µM in experiment [1] and 0.056 µM in experiment [2]. Regarding `COc1cc(Nc2cc(Oc3ccc(C)nc3-c3ccccc3)ccn2)cc(OC)c1OC` [Example 45, 4-(6-Methyl-2-phenyl-pyridin-3-yl)oxy-N-(3,4,5-trimethoxy-phenyl)pyridin-2-amine], the IC50 amounted to 0.00537 µM in experiment [1] and 0.00799 µM in experiment [2]. With `Cc1cc(Oc2ccnc(Nc3ccc4[nH]ccc4c3)c2)c(-c2ccccn2)nc1C` [Example 35, N-[4-(5,6-Dimethyl-2-pyridin-2-yl-pyridin-3-yl)-oxypyridin-2-yl]-1H-indol-5-amine], the IC50 in experiment [1] came out at 0.205 µM; in experiment [2], 0.463 µM. The like results for `COc1cc(Nc2cc(Oc3ccc(C)nc3-c3cccc(Cl)c3)ccn2)cc(OC)c1OC` [Example 55, 4-[2-(3-Chlorophenyl)-6-methyl-pyridin-3-yl]oxy-N-(3,4,5-trimethoxyphenyl)-pyridin-2-amine] were, in that order, 0.00929 µM and 0.0346 µM. The like results for `COc1cc(Nc2cc(Oc3cccnc3-c3cccc(C)n3)ccn2)cc(OC)c1OC` [Example 1, 4-[2-(6-Methylpyridin-2-yl)pyridin-3-yl]oxy-N-(3,4,5-trimethoxy-phenyl)pyridin-2-amine] were, in that order, 0.0783 µM and 0.089 µM. The like results for `CCn1nccc1Nc1cc(Oc2cc(C)c(C)nc2-c2ccccn2)ccn1` [Example 32, 4-(5,6-Dimethyl-2-pyridin-2-yl-pyridin-3-yl)oxy-N-(2-ethylpyrazol-3-yl)-pyridin-2-amine] were, in that order, 0.0425 µM and 0.0339 µM. With `Cc1cc(Oc2ccnc(Nc3cc(N4CCOCC4)cc(N4CCOCC4)c3)c2)c(-c2ccccn2)nc1C` [Example 21, 4-(5,6-Dimethyl-2-pyridin-2-yl-pyridin-3-yl)oxy-N-(3,5-dimorpholin-4-ylphenyl)pyridin-2-amine], the results for the IC50 in experiment [1] and in experiment [2] were 0.0772 µM and 0.125 µM, respectively.

Turning to `Cc1cc(Oc2ccnc(Nc3ccc(S(C)(=O)=O)cc3)c2)c(-c2ccccn2)nc1C` [Example 13, 4-(5,6-Dimethyl-2-pyridin-2-yl-pyridin-3-yl)oxy-N-(4-methylsulfonyl-phenyl)-pyridin-2-amine], the IC50 in experiment [1] worked out at 0.00853 µM; in experiment [2] it was 0.0103 µM. The like results for `COc1cc(Nc2cc(Oc3cccnc3C)ccn2)cc(OC)c1OC` [Example 9, 4-(2-Methylpyridin-3-yl)oxy-N-(3,4,5-trimethoxyphenyl)-pyridin-2-amine] were, in that order, 0.114 µM and 0.187 µM.

On to `Cc1cc(Oc2ccnc(Nc3cccnc3)c2)c(-c2ccccn2)nc1C` [Example 15, 4-(5,6-Dimethyl-2-pyridin-2-yl-pyridin-3-yl)oxy-N-pyridin-3-yl-pyridin-2-amine], for which the IC50 in experiment [1] was 0.0129 µM; in experiment [2] it was 0.0147 µM. `Cc1cc(Oc2ccnc(Nc3ccc(CO)cc3)c2)c(-c2ccccn2)nc1C` [Example 33, (4-{[4-(5,6-Dimethyl-2-pyridin-2-yl-pyridin-3-yl)-oxypyridin-2-yl]amino}phenyl)methanol]: the IC50 came to 0.0172 µM in experiment [1] and 0.0167 µM in experiment [2]. The like results for `COc1cc(Nc2cc(Oc3ccc(C)nc3-c3ccccn3)ccn2)cc(OC)c1OC` [Example 47, 4-(6-Methyl-2-pyridin-2-yl-pyridin-3-yl)oxy-N-(3,4,5-trimethoxy-phenyl)pyridin-2-amine] were, in that order, 0.0248 µM and 0.0108 µM. Turning to `CCc1ccc(Oc2ccnc(Nc3cc(OC)c(OC)c(OC)c3)c2)c(-c2cccc(C)n2)n1` [Example 3, 4-[6-Ethyl-2-(6-methylpyridin-2-yl)pyridin-3-yl]oxy-N-(3,4,5-trimethoxy-phenyl)pyridin-2-amine], the figures for the IC50 in experiment [1] and in experiment [2] were 0.0274 µM and 0.0459 µM, respectively. The like results for `COc1cc(Nc2cc(Oc3cccnc3Cl)ccn2)cc(OC)c1OC` [Example 53, 4-(2-Chloropyridin-3-yl)oxy-N-(3,4,5-trimethoxyphenyl)pyridin-2-amine] were, in that order, 0.481 µM and 0.249 µM. Turning to `COc1cc(Nc2cc(Oc3ccc(C)nc3-c3cnn(C)c3)ccn2)cc(OC)c1OC` [Example 5, 4-[6-Methyl-2-(1-methylpyrazol-4-yl)pyridin-3-yl]oxy-N-(3,4,5-trimethoxy-phenyl)pyridin-2-amine], the IC50 in experiment [1] came to 0.0153 µM; in experiment [2], 0.0169 µM.

As to `Cc1cc(Oc2ccnc(Nc3ccncc3)c2)c(-c2ccccn2)nc1C` [Example 36, 4-(5,6-Dimethyl-2-pyridin-2-yl-pyridin-3-yl)oxy-N-pyridin-4-yl-pyridin-2-amine], the IC50 in experiment [1] was 0.0632 µM; in experiment [2], 0.0515 µM.

On to `COc1cc(Nc2cc(Oc3ccc(C)nc3)ccn2)cc(OC)c1OC` [Example 8, 4-(6-Methylpyridin-3-yl)oxy-N-(3,4,5-trimethoxyphenyl)-pyridin-2-amine], for which the IC50 in experiment [1] is 0.174 µM; in experiment [2] it was 0.294 µM. The like results for `COc1cc(Nc2cc(Oc3cccnc3-c3ccccc3)ccn2)cc(OC)c1OC` [Example 49, 4-(2-Phenylpyridin-3-yl)oxy-N-(3,4,5-trimethoxyphenyl)pyridin-2-amine] were, in that order, 0.00782 µM and 0.00804 µM. For the compound `COc1cc(Nc2cc(Oc3ccc(C)nc3-c3cnccn3)ccn2)cc(OC)c1OC` [Example 48, 4-(6-Methyl-2-pyrazin-2-yl-pyridin-3-yl)oxy-N-(3,4,5-trimethoxy-phenyl)pyridin-2-amine], the IC50 in experiment [1] was determined as 0.0751 µM; in experiment [2] it was 0.0486 µM. For `Cc1cc(Oc2ccnc(Nc3ccc(S(N)(=O)=O)cc3)c2)c(-c2ccccn2)nc1C` [Example 26, 4-{[4-(5,6-Dimethyl-2-pyridin-2-yl-pyridin-3-yl)oxypyridin-2-yl]-amino}benzenesulfonamide], the IC50 in experiment [1] turned out to be 0.0219 µM; in experiment [2] it was 0.0124 µM. The like results for `Cc1cc(Oc2ccnc(Nc3cccc(F)c3)c2)c(-c2ccccn2)nc1C` [Example 29, N-(3-Fluorophenyl)-4-(5,6-dimethyl-2-pyridin-2-yl-pyridin-3-yl)-oxy-pyridin-2-amine] were, in that order, 0.0166 µM and 0.0184 µM. With `COc1ccc(S(C)(=O)=O)cc1Nc1cc(Oc2cc(C)c(C)nc2-c2ccccn2)ccn1` [Example 17, 4-(5,6-Dimethyl-2-pyridin-2-yl-pyridin-3-yl)oxy-N-(2-methoxy-5-methylsulfonyl-phenyl)pyridin-2-amine], the IC50 was found to be 0.0147 µM in experiment [1] and 0.0514 µM in experiment [2].

For `COc1cccc(-c2nc(C)ccc2Oc2ccnc(Nc3cc(OC)c(OC)c(OC)c3)c2)c1` [Example 58, 4-[2-(3-Methoxy-phenyl)-6-methyl-pyridin-3-yl]oxy-N-(3,4,5-trimethoxy-phenyl)pyridin-2-amine], the IC50 in experiment [1] was determined as 0.0187 µM; in experiment [2], 0.135 µM. The like results for `COc1cc(Nc2cc(Oc3cc(C)c(C)nc3-c3cccc(C)n3)ccn2)cc(OC)c1OC` [Example 2, 4-[5,6-Dimethyl-2-(6-methylpyridin-2-yl)pyridin-3-yl]oxy-N-(3,4,5-trimethoxy-phenyl)pyridin-2-amine] were, in that order, 0.0337 µM and 0.0723 µM. Regarding `Cc1cc(Oc2ccnc(Nc3ccc4cc[nH]c4c3)c2)c(-c2ccccn2)nc1C` [Example 40, N-[4-(5,6-Dimethyl-2-pyridin-2-yl-pyridin-3-yl)-oxypyridin-2-yl]-1H-indol-6-amine], in experiment [1], the IC50 was 1.14 µM and 1.11 µM. Turning to `Cc1cc(Oc2ccnc(Nc3ccccn3)c2)c(-c2ccccn2)nc1C` [Example 14, 4-(5,6-Dimethyl-2-pyridin-2-yl-pyridin-3-yl)oxy-N-pyridin-2-yl-pyridin-2-amine], the IC50 in experiment [1] is 0.0255 µM and 0.00856 µM.
